This passage reports IC50 results from US9708308B2, “Factor IXa inhibitors” (Merck Sharp & Dohme Corp., priority 2012, dated 2017).

The target in this assay is Factor IXa (Homo sapiens, UniProt P00740). In words: Determination of inhibitory activity against Factor IXa (cleavage of fluorescent peptide substrate). Format: biochemical. The conditions noted are these: cleavage of fluorescent peptide CH3SO2-D-CHG-Gly-Arg-AFC, release of AFC; read-out: FIXa IC50. A digest of the protocol: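 Factor IXa activity followed via cleavage of CH3SO2-D-CHG-Gly-Arg-AFC, releasing AFC. Fluorescence read at excitation 405 nm, emission 510 nm.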
Chain of Factor IXa (P00740 227-461 limits assumed): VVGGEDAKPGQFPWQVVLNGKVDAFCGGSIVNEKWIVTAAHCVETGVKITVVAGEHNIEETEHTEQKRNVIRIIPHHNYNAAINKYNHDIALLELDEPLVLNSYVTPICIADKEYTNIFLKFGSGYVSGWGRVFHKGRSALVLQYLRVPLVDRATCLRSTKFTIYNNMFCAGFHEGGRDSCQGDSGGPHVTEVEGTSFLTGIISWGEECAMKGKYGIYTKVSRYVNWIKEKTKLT
Chain of Factor IXa (P00740 47-191 partner limits assumed): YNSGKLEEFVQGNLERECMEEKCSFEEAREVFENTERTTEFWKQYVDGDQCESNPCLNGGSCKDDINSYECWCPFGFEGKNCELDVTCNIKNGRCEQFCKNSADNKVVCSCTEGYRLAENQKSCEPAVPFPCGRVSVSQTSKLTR
On to `C[C@]1([C@@H](O)C(=O)Nc2ccc3c(N)noc3c2)OCCN(c2ccn(-c3ccc(S(C)(=O)=O)cc3)n2)C1=O` [Example 84, (R)—N-(3-aminobenzo[d]isoxazol-6-yl)-2-hydroxy-2-((R)-2-methyl-4-(1-(4-(methylsulfonyl)phenyl)-1H-pyrazol-3-yl)-3-oxomorpholin-2-yl)acetamide], for which the 50% inhibitory concentration (IC50) is 0.0132 µM.
As for `C[C@]1([C@@H](O)C(=O)Nc2ccc3c(N)noc3c2)OCCN(c2ccn(-c3cccnc3)n2)C1=O` [Example 85, (R)—N-(3-aminobenzo[d]isoxazol-6-yl)-2-hydroxy-2-((R)-2-methyl-3-oxo-4-(1-(pyridin-3-yl)-1H-pyrazol-3-yl)morpholin-2-yl)acetamide], the figure is 0.279 µM; as for `C[C@]1([C@@H](O)C(=O)Nc2ccc3c(N)noc3c2)OCCN(c2ccn(-c3ccc(C(F)(F)F)nc3)n2)C1=O` [Example 86, (R)—N-(3-aminobenzo[d]isoxazol-6-yl)-2-hydroxy-2-((R)-2-methyl-3-oxo-4-(1-(6-(trifluoromethyl)pyridin-3-yl)-1H-pyrazol-3-yl)morpholin-2-yl)acetamide], 0.414 µM; as for `C[C@]1([C@@H](O)C(=O)Nc2ccc3c(N)noc3c2)OCCN(c2ccn(-c3cncc(C(F)(F)F)c3)n2)C1=O` [Example 87, (R)—N-(3-aminobenzo[d]isoxazol-6-yl)-2-hydroxy-2-((R)-2-methyl-3-oxo-4-(1-(5-(trifluoromethyl)pyridin-3-yl)-1H-pyrazol-3-yl)morpholin-2-yl)acetamide], 0.228 µM.
Next, `C[C@]1([C@@H](O)C(=O)Nc2ccc3c(N)noc3c2)OCCN(c2ccn(-c3cncc(C#N)c3)n2)C1=O` [Example 88, (R)—N-(3-aminobenzo[d]isoxazol-6-yl)-2-((R)-4-(1-(5-cyanopyridin-3-yl)-1H-pyrazol-3-yl)-2-methyl-3-oxomorpholin-2-yl)-2-hydroxyacetamide]: 0.95 µM; `C[C@]1([C@@H](O)C(=O)Nc2ccc3c(N)noc3c2)OCCN(c2ccn(-c3ccncc3)n2)C1=O` [Example 89, (R)—N-(3-aminobenzo[d]isoxazol-6-yl)-2-hydroxy-2-((R)-2-methyl-3-oxo-4-(1-(pyridin-4-yl)-1H-pyrazol-3-yl)morpholin-2-yl)acetamide]: 1.06 µM.
As for `C[C@]1([C@@H](O)C(=O)Nc2ccc3c(N)noc3c2)OCCN(c2ccn(-c3ccncc3F)n2)C1=O` [Example 90, (R)—N-(3-aminobenzo[d]isoxazol-6-yl)-2-((R)-4-(1-(3-fluoropyridin-4-yl)-1H-pyrazol-3-yl)-2-methyl-3-oxomorpholin-2-yl)-2-hydroxyacetamide], the IC50 is 0.0235 µM.
As to `COC(=O)c1cc(-n2ccc(N3CCO[C@](C)([C@@H](O)C(=O)Nc4ccc5c(N)noc5c4)C3=O)n2)ccn1` [Example 91, methyl 4-(3-((R)-2-((R)-2-((3-aminobenzo[d]isoxazol-6-yl)amino)-1-hydroxy-2-oxoethyl)-2-methyl-3-oxomorpholino)-1H-pyrazol-1-yl)picolinate], the IC50 is 0.69 µM.
Regarding `COc1cc(-n2ccc(N3CCO[C@](C)([C@@H](O)C(=O)Nc4ccc5c(N)noc5c4)C3=O)n2)ccn1` [Example 92, (R)—N-(3-aminobenzo[d]isoxazol-6-yl)-2-hydroxy-2-((R)-4-(1-(2-methoxypyridin-4-yl)-1H-pyrazol-3-yl)-2-methyl-3-oxomorpholin-2-yl)acetamide], the IC50 was determined as 0.106 µM.
Next, `C[C@]1([C@@H](O)C(=O)Nc2ccc3c(N)noc3c2)OCCN(c2ccn(-c3ccnc(C(F)(F)F)c3)n2)C1=O` [Example 94, (R)—N-(3-aminobenzo[d]isoxazol-6-yl)-2-hydroxy-2-((R)-2-methyl-3-oxo-4-(1-(2-(trifluoromethyl)pyridin-4-yl)-1H-pyrazol-3-yl)morpholin-2-yl)acetamide]: 0.0129 µM.
Take `C[C@]1([C@@H](O)C(=O)Nc2ccc3c(N)noc3c2)OCCN(c2ccn(-c3c(F)cncc3F)n2)C1=O` [Example 95, (R)—N-(3-aminobenzo[d]isoxazol-6-yl)-2-((R)-4-(1-(3,5-difluoropyridin-4-yl)-1H-pyrazol-3-yl)-2-methyl-3-oxomorpholin-2-yl)-2-hydroxyacetamide]: the IC50 is 0.251 µM.
For the compound `Cc1cc(N2CCO[C@](C)([C@@H](O)C(=O)Nc3ccc4c(N)noc4c3)C2=O)nn1-c1ccnc(C(F)(F)F)c1` [Example 96, (R)—N-(3-aminobenzo[d]isoxazol-6-yl)-2-hydroxy-2-((R)-2-methyl-4-(5-methyl-1-(2-(trifluoromethyl)pyridin-4-yl)-1H-pyrazol-3-yl)-3-oxomorpholin-2-yl)acetamide], the IC50 came out at 0.0491 µM.
For the compound `C[C@]1([C@@H](O)C(=O)Nc2ccc3c(N)noc3c2)OCCN(c2ccn(-c3ccnnc3)n2)C1=O` [Example 97, (R)—N-(3-aminobenzo[d]isoxazol-6-yl)-2-hydroxy-2-((R)-2-methyl-3-oxo-4-(1-(pyridazin-4-yl)-1H-pyrazol-3-yl)morpholin-2-yl)acetamide], the IC50 stood at 0.00368 µM.
For the compound `COc1cc(-n2ccc(N3CCO[C@](C)([C@@H](O)C(=O)Nc4ccc5c(N)noc5c4)C3=O)n2)cnn1` [Example 98, (R)—N-(3-aminobenzo[d]isoxazol-6-yl)-2-hydroxy-2-((R)-4-(1-(6-methoxypyridazin-4-yl)-1H-pyrazol-3-yl)-2-methyl-3-oxomorpholin-2-yl)acetamide], the 50% inhibitory concentration (IC50) was 0.00371 µM.
Next, `[2H]C([2H])([2H])Oc1cc(-n2ccc(N3CCO[C@](C)([C@@H](O)C(=O)Nc4ccc5c(N)noc5c4)C3=O)n2)cnn1` [Example 99, (2R)—N-(3-amino-1,2-benzoxazol-6-yl)-2-hydroxy-2-[(2R)-2-methyl-3-oxo-4-[1-[6-(trideuteriomethoxy)pyridazin-4-yl]pyrazol-3-yl]morpholin-2-yl]acetamide]: 0.0037 µM; `C[C@]1([C@@H](O)C(=O)Nc2ccc3c(N)noc3c2)OCCN(c2ccn(-c3cnnc(C#N)c3)n2)C1=O` [Example 100, (R)—N-(3-aminobenzo[d]isoxazol-6-yl)-2-((R)-4-(1-(6-cyanopyridazin-4-yl)-1H-pyrazol-3-yl)-2-methyl-3-oxomorpholin-2-yl)-2-hydroxyacetamide]: 0.00217 µM.
Turning to `COc1ncc(-n2ccc(N3CCO[C@](C)([C@@H](O)C(=O)Nc4ccc5c(N)noc5c4)C3=O)n2)cn1` [Example 101, (R)—N-(3-aminobenzo[d]isoxazol-6-yl)-2-hydroxy-2-((R)-4-(1-(2-methoxypyrimidin-5-yl)-1H-pyrazol-3-yl)-2-methyl-3-oxomorpholin-2-yl)acetamide], the IC50 worked out at 0.635 µM.
With `C[C@]1([C@@H](O)C(=O)Nc2ccc3c(N)noc3c2)OCCN(c2ccn(-c3cnc(C(F)(F)F)nc3)n2)C1=O` [Example 102, (R)—N-(3-aminobenzo[d]isoxazol-6-yl)-2-hydroxy-2-((R)-2-methyl-3-oxo-4-(1-(2-(trifluoromethyl)pyrimidin-5-yl)-1H-pyrazol-3-yl)morpholin-2-yl)acetamide], the IC50 came to 0.124 µM.
Regarding `COc1nccc(-n2ccc(N3CCO[C@](C)([C@@H](O)C(=O)Nc4ccc5c(N)noc5c4)C3=O)n2)n1` [Example 103, (R)—N-(3-aminobenzo[d]isoxazol-6-yl)-2-hydroxy-2-((R)-4-(1-(2-methoxypyrimidin-4-yl)-1H-pyrazol-3-yl)-2-methyl-3-oxomorpholin-2-yl)acetamide], the IC50 worked out at 0.0108 µM.
Next, `Cc1cc(N2CCO[C@](C)([C@@H](O)C(=O)Nc3ccc4c(N)noc4c3)C2=O)nn1C1CC1` [Example 104, (R)—N-(3-aminobenzo[d]isoxazol-6-yl)-2-((R)-4-(1-cyclopropyl-5-methyl-1H-pyrazol-3-yl)-2-methyl-3-oxomorpholin-2-yl)-2-hydroxyacetamide]: 0.401 µM; `C[C@]1([C@@H](O)C(=O)Nc2ccc3c(N)noc3c2)OCCN(c2nc(-c3ccncc3)co2)C1=O` [Example 105, (R)—N-(3-aminobenzo[d]isoxazol-6-yl)-2-hydroxy-2-((R)-2-methyl-3-oxo-4-(4-(pyridin-4-yl)oxazol-2-yl)morpholin-2-yl)acetamide]: 0.0979 µM.
For the compound `C[C@]1([C@@H](O)C(=O)Nc2ccc3c(N)noc3c2)OCCN(c2cccc(OC3CCOCC3)n2)C1=O` [Example 108, (R)—N-(3-aminobenzo[d]isoxazol-6-yl)-2-hydroxy-2-((R)-2-methyl-3-oxo-4-(6-((tetrahydro-2H-pyran-4-yl)oxy)pyridin-2-yl)morpholin-2-yl)acetamide], the IC50 is 0.37 µM.
Next, `C[C@]1([C@@H](O)C(=O)Nc2ccc3c(N)noc3c2)OCCN(c2cccc(-c3ccc(OC(F)(F)F)cc3)n2)C1=O` [Example 109, (R)—N-(3-aminobenzo[d]isoxazol-6-yl)-2-hydroxy-2-((R)-2-methyl-3-oxo-4-(6-(4-(trifluoromethoxy)phenyl)pyridin-2-yl)morpholin-2-yl)acetamide]: 0.38 µM.
Next, `C[C@]1([C@@H](O)C(=O)Nc2ccc3c(N)noc3c2)OCCN(c2cccc(-c3ccc(C(=O)O)cc3)n2)C1=O` [Example 110, 4-(6-((R)-2-((R)-2-((3-aminobenzo[d]isoxazol-6-yl)amino)-1-hydroxy-2-oxoethyl)-2-methyl-3-oxomorpholino)pyridin-2-yl)benzoic acid]: 0.455 µM; `C[C@]1([C@@H](O)C(=O)Nc2ccc3c(N)noc3c2)OCCN(c2cccc(-c3ccc(C(F)(F)F)cc3C(=O)O)n2)C1=O` [Example 111, 2-(6-((R)-2-((R)-2-((3-aminobenzo[d]isoxazol-6-yl)amino)-1-hydroxy-2-oxoethyl)-2-methyl-3-oxomorpholino)pyridin-2-yl)-5-(trifluoromethyl)benzoic acid]: 0.972 µM; `C[C@]1([C@@H](O)C(=O)Nc2ccc3c(N)noc3c2)OCCN(c2cccc(-c3ccnnc3)n2)C1=O` [Example 112, (R)—N-(3-aminobenzo[d]isoxazol-6-yl)-2-hydroxy-2-((R)-2-methyl-3-oxo-4-(6-(pyridazin-4-yl)pyridin-2-yl)morpholin-2-yl)acetamide]: 0.0416 µM.

Usually IC50 stands for the midpoint of a concentration-inhibition curve.
